According to patent US20070197388A1, “Haloperoxidase treatment to control algae” (Buckman Laboratories International, Inc., priority 2006, published 2007):

What was measured:
Assay type in all cases: cell-based
[1] = system: Enterobacter aerogenes (ATCC 13048); experiment: Evaluation of bactericidal activity (MIC, >=90% kill) and checkerboard synergy, Enterobacter aerogenes; conditions: Klebsiella aerogenes, ATCC13048; alone; system with 2 ppm a.i. Hydrogen Peroxide; 18 hours at 37° C.; read-out: MICA = MIC of Dichloramine B
Method: (§1) Synergy Evaluation: Synergy was measured by checkerboards dilutions (Yan and Hancock, 2001), in which one compound is diluted along the rows of test tubes and the other is diluted along the columns. This method focuses on looking for a reduction in the MIC of each component in the presence of the other. The result is expressed as the Fractional Inhibitory Concentration Index (FIC), calculated as follows: FIC=[A]/MICA+[B]/MICB where, • MICA and MICB=MICs of the compounds A and B alone • [A] and [B]=MICs of the compounds A and B when in combination.
Evaluation of Bactericidal Activity: This method is suitable for use in evaluating the antibacterial properties of chemicals by determining their MIC value. The MIC value represents the Minimum Inhibitory Concentration defined as the lowest level of compound required to achieve a ≧90% kill of a given organism.
Equipment • 1. Test tubes, 18×150 mm disposable culture tubes sterile • 2. Sterile 1 ml and 10 ml pipettes • 3. Incubator capable of maintaining a temperature of 37° C.±1° C. • 4. Autoclave • 5. pH meter • 6. […]
Rating of tubes via plate count method: The Pour Plate Count agar was prepared as described in Standard Methods (American Public Health Association; 1995). […] Colonies formed in or on the plate count medium within 48±2 h were counted as described in Standard Methods, and the results were reported as CFU/milliliter. […]

[2] = system: Chlorella sp. (ATCC 7516); experiment: Evaluation of algaecidal activity (MIC) and checkerboard synergy, Chlorella sp.
Method: Evaluation of […] Activity: This test method provides a technique for screening newly synthesized compounds for their effectiveness to inhibit (repress) algae growth. […] Apparatus: Test tubes, 18-150 mm. Sterilized test tubes are required. Incubator, capable of a constant (±2° C.) temperature and light regulation. Reagents and Materials: [table] Inoculum: Cell suspension from a culture grown in modified Allen's medium for 14 days or as needed to attain a desired cell mass of Chlorella sp. (ATCC 7516) or Phormidium faveolarum (UTEX 427). The inoculum is calibrated at 82% transmittance measured at 590 nanometers wavelength before inoculation. Procedure: Medium preparation: Modified Allen's medium (Allen, A. A., 1968). [table] Sterilize the medium in the autoclave for 20 minutes at 15 pounds pressure (121° C.). After autoclaving, cool medium to 45-50° C. and dispense 5 ml of medium per test tube, then add the compound and the inoculum. Compound incorporation: Prepare a stock solution in water of the compound to be tested. The concentration of the stock solution is dependent on the largest dosage desired to be tested. Dilute the stock solution to obtain dosages smaller than that chosen for the stock solution. A maximum amount of 100 microliters of stock solution or the corresponding dilution should be added per test tube. Inoculation: Add 100 microliters of inoculum per test tube, per type of medium and type of inoculum. Incubation: Place the test tubes containing the treatments in an incubator set at 24° C. Light is provided by plant growth fluorescent tubes set to provide 16 h of light and 8 h of darkness. […] The minimum inhibitory concentration (MIC) of the compound is the smallest dosage showing negative algae growth. Synergy Evaluation: Synergy was measured by checkerboards dilutions (Yan and Hancock, 2001), in which one compound is diluted along the rows of test tubes and the other is diluted along the columns. This method focuses on looking for a reduction in the MIC of each component in the presence of the other.

[3] = system: Phormidium faveolarum (UTEX 427); experiment: Evaluation of algaecidal activity (MIC) and checkerboard synergy, Phormidium faveolarum; conditions: alone, system with 1 ppm a.i. Hydrogen Peroxide, 14 days at 24° C.
Method: Evaluation of Algaecidal Activity: This test method provides a technique for screening newly synthesized compounds for their effectiveness to inhibit (repress) algae growth.
Apparatus: Test tubes, 18-150 mm. Sterilized test tubes are required.
Incubator, capable of a constant (±2° C.) temperature and light regulation.
Inoculum: Cell suspension from a culture grown in modified Allen's medium for 14 days or as needed to attain a desired cell mass of Chlorella sp. (ATCC 7516) or Phormidium faveolarum (UTEX 427). The inoculum is calibrated at 82% transmittance measured at 590 nanometers wavelength before inoculation.
Procedure: Medium preparation: Modified Allen's medium (Allen, A. A., 1968).
Sterilize the medium in the autoclave for 20 minutes at 15 pounds pressure (121° C.). After autoclaving, cool medium to 45-50° C. and dispense 5 ml of medium per test tube, then add the compound and the inoculum. […]
as §1, with “This method focuses on looking for a reduction in the MIC of each component in the presence of the other.” left out

[4] = alone, system with 1 ppm a.i. Hydrogen Peroxide, 14 days at 24° C.

Molecule: O=S(=O)(c1ccccc1)N(Cl)Cl [Dichloramine B, N,N-dichlorobenzenesulfonamide]
- MIC [1]: 5 µg/mL
- MIC Dichloramine B combined with Haloperoxidase and Hydrogen Peroxide ([2]; combined with 1 ppm product of Haloperoxidase (Novozyme) and 2 ppm a.i. Hydrogen Peroxide, 14 days at 24° C.): < 0.07 ppm a.i.

Molecule: CCCCCCCCCCCCCCCC[N+](C)(C)CC.[Br-] [EHDB, Ethyl-n-Hexadecyl Dimethylammonium Bromide]
- MIC ([3]; 336 h, read-out: MICA = MIC of EHDB): 0.5 µg/mL
- MICA = MIC of EHDB [2, 4]: 0.5 MICA mg a.i./l

Molecule: Benzalkonium Chloride [reference compound]
- MICA = MIC of Benzalkonium Chloride [3]: 2 MICA mg a.i./l
- dosage controlling algae growth ([2]; Example 7, reinoculated only after 14 days, incubated 14 days (result not shown)): 2 ppm a.i.
- MICA = MIC of Benzalkonium Chloride ([2]; alone, reinoculated after 14 days and treated with 1 ppm of hydrogen peroxide, incubated 14 days): 2 MICA mg a.i./l
- MICA = MIC of Benzalkonium Chloride [2, 4]: 1 MICA mg a.i./l

B1: Myeloperoxidase: a myeloperoxidase enzyme obtained from Biodesign International (protein, UniProt P05164 165-745, looked up)
Myeloperoxidase: VTCPEQDKYRTITGMCNNRRSPTLGASNRAFVRWLPAEYEDGFSLPYGWTPGVKRNGFPVALARAVSNEIVRFPTDQLTPDQERSLMFMQWGQLLDHDLDFTPEPAARASFVTGVNCETSCVQQPPCFPLKIPPNDPRIKNQADCIPFFRSCPACPGSNITIRNQINALTSFVDASMVYGSEEPLARNLRNMSNQLGLLAVNQRFQDNGRALLPFDNLHDDPCLLTNRSARIPCFLAGDTRSSEMPELTSMHTLLLREHNRLATELKSLNPRWDGERLYQEARKIVGAMVQIITYRDYLPLVLGPTAMRKYLPTYRSYNDSVDPRIANVFTNAFRYGHTLIQPFMFRLDNRYQPMEPNPRVPLSRVFFASWRVVLEGGIDPILRGLMATPAKLNRQNQIAVDEIRERLFEQVMRIGLDLPALNMQRSRDHGLPGYNAWRRFCGLPQPETVGQLGTVLRNLKLARKLMEQYGTPNNIDIWMGGVSEPLKRKGRVGPLLACIIGTQFRKLRDGDRFWWENEGVFSMQQRQALAQISLPRIICDNTGITTVSKNNIFMSNSYPRDFVNCSTLPALNLASWREAS
- MIC (ppm product) ([2]; 2 ppm a.i. hydrogen peroxide as substrate, 4 ppm a.i. ammonium bromide as electron donor): <0.1 ppm product
